The Deep4Chem optical property database
Each block holds one compound with its values, some of them ahead of it.

Test: solvent given as SMILES

absorption maximum (in ClC(Cl)Cl): 394 nm
Structure (SMILES): O=C1NC(=O)c2ccc(N3CCOCC3)c3cccc1c23

absorption maximum (in CC#N): 347 nm
absorption maximum (in ClCCl): 365 nm
Structure (SMILES): Cc1ccc(-c2cc(C)[o+]c(C)c2)cc1

absorption maximum (in C1CCOC1): 361 nm
absorption maximum (in CC#N): 368 nm
absorption maximum (in CCCCCC): 336 nm
absorption maximum (in CCO): 368 nm
absorption maximum (in CCOC(C)=O): 361 nm
absorption maximum (in CS(C)=O): 369 nm
absorption maximum (in ClCCl): 368 nm
absorption maximum (in O): 368 nm
Structure (SMILES): CCCCCCCCCCCCOc1cc2cc(N(C)C)ccc2cc1C#N

absorption maximum (in C1CCCCC1): 382.68 nm
Structure (SMILES): C[Si](C)(C)[Si](C)(C)c1ccc2cc3ccccc3cc2c1

absorption maximum (in ClC(Cl)Cl): 509 nm
Structure (SMILES): N#CC(C#N)=Cc1ccc(-c2ccc(N(c3ccccc3)c3ccccc3)cc2)o1

absorption maximum (in CS(C)=O): 404 nm
Structure (SMILES): N#Cc1c(/C=C/c2ccc(N(c3ccccc3)c3ccccc3)cc2)cc(-c2cccs2)cc1N1CCCCC1

absorption maximum (in ClCCl): 359 nm
Structure (SMILES): CCN(CC)c1ccc2c(c1)oc(=O)c1cc3c(-c4ccccc4)nn(-c4ccccc4)c3nc12

absorption maximum (in C1CCOC1): 275 nm
absorption maximum (in C1COCCO1): 274 nm
absorption maximum (in CC#N): 275 nm
absorption maximum (in CCCCCCC): 274 nm
absorption maximum (in CCO): 274 nm
absorption maximum (in CO): 275 nm
absorption maximum (in O): 264 nm
Structure (SMILES): CC1(C)CC(=O)C2=C(C1)Oc1ccc3ccccc3c1C2c1ccccn1 (stereo not drawn)

absorption maximum (in ClCCl): 347 nm
Structure (SMILES): F[B-]1(F)Oc2ccccc2-c2c3c(c4c([n+]21)CCc1ccccc1-4)CCc1ccccc1-3

absorption maximum (in CC#N): 304 nm
absorption maximum (in CCCCCC): 310 nm
Structure (SMILES): CCN(CC)c1ccc(-n2c(C)ccc2C)cc1

absorption maximum (in C1COCCO1): 422 nm
absorption maximum (in CC#N): 428 nm
absorption maximum (in CCO): 433 nm
absorption maximum (in CCOC(C)=O): 423 nm
absorption maximum (in O): 425 nm
Structure (SMILES): COc1ccc(/C=C/C2=NC(=C\c3ccncc3)/C(=O)N2C)cc1

absorption maximum (in O): 419 nm
Structure (SMILES): Cc1ccc2c(c1)c(=O)c1ccccc1n2CCCCCC(=O)O

absorption maximum (in ClCCl): 321 nm
Structure (SMILES): Cc1ccc(O)c(-c2nc(C)c3n2CCCC3)c1

absorption maximum (in CCCCCCCCCCCCCC): 382 nm
Structure (SMILES): Cc1ccsc1-c1ccc(-c2ccc(-c3sccc3C)s2)s1

absorption maximum (in CC#N): 548 nm
absorption maximum (in CCO): 552 nm
absorption maximum (in CN(C)C=O): 552 nm
absorption maximum (in O): 562 nm
Structure (SMILES): CCN(CC)c1ccc2c(-c3ccc(S(=O)(=O)[O-])cc3S(=O)(=O)[O-])c3ccc(=[N+](CC)CC)cc-3oc2c1

absorption maximum (in CC#N): 618 nm
Structure (SMILES): CC(=O)OC[C@H]1O[C@@H](OCC#Cc2ccc(C3=C4C(C)=CC(/C=C/c5ccc([N+](C)(C)C)cc5)=[N+]4[B-](F)(F)n4c(/C=C/c5ccc([N+](C)(C)C)cc5)cc(C)c43)cc2)[C@H](OC(C)=O)C(OC(C)=O)[C@@H]1OC(C)=O (stereo partly drawn)

absorption maximum (in ClC(Cl)Cl): 507 nm
Structure (SMILES): CC1=CC(C)=[N+]2C1=C(c1ccc(I)cc1)c1c(C)cc(C)n1[B-]21OCCO1

absorption maximum (in C1COCCO1): 357 nm
absorption maximum (in CC#N): 356 nm
absorption maximum (in CCO): 351 nm
absorption maximum (in CCOC(C)=O): 353 nm
absorption maximum (in O): 347 nm
Structure (SMILES): CC1=N/C(=C\c2ccncc2)C(=O)N1C

absorption maximum (in CCCCCC): 468 nm
absorption maximum (in CO): 476 nm
Structure (SMILES): COc1ccccc1NC1=CC(=O)c2ccccc2C1=O

absorption maximum (in ClCCl): 441 nm
Structure (SMILES): O=C1c2ccccc2-c2nc3c4ccccc4c4ccccc4c3n21

absorption maximum (in CC#N): 408 nm
Structure (SMILES): CCOC(=O)c1c2c3c(ccc(Cl)c3c3cc4ccccc4cc13)N(C)C2=O

absorption maximum (in CO): 567 nm
Structure (SMILES): CCN(C)c1ccc(C2=C3C(C)=CC(/C=C/c4ccc(OCC(=O)OC)cc4)=[N+]3[B-](F)(F)n3c(C)cc(C)c32)cc1

The remaining lines, values behind:

Structure (SMILES): COc1ccc(N(c2ccccc2)c2cc3ccc4cc(N(c5ccccc5)c5ccc(OC)cc5)cc5ccc(c2)c3c45)cc1
absorption maximum (in Cc1ccccc1): 453 nm

Structure (SMILES): Cc1ccc2c(c1)NC(=O)CC(=O)N2
absorption maximum (in CS(C)=O): 294 nm

Structure (SMILES): CC(=O)O[B-]1(OC(C)=O)OC(/C=C/c2cccc3ccccc23)=CC(/C=C/c2cccc3ccccc23)=[O+]1
absorption maximum (in C1CCOC1): 464 nm
absorption maximum (in CC#N): 468 nm
absorption maximum (in CC(C)=O): 464 nm
absorption maximum (in CS(C)=O): 478 nm
absorption maximum (in Cc1ccccc1): 468 nm
absorption maximum (in ClC(Cl)Cl): 474 nm
absorption maximum (in ClCCl): 472 nm

Structure (SMILES): COc1ccc(C2=C3C=c4c(oc5cc6c(cc45)[C@H]4CC[C@]5(C)C(=O)CC[C@H]5[C@@H]4CC6)=[N+]3[B-](F)(F)n3c2cc2c4cc5c(cc4oc23)CC[C@@H]2[C@@H]5CC[C@]3(C)C(=O)CC[C@@H]23)cc1
absorption maximum (in CCOC(C)=O): 596.5 nm
absorption maximum (in CCOCC): 596.5 nm
absorption maximum (in CO): 595.5 nm

Structure (SMILES): CCc1c(C)[nH]c(C2=[N+]3C(=Cc4c(C)cc(C)n4[B-]3(F)F)c3ccccc32)c1C
absorption maximum (in C1CCOC1): 615 nm
absorption maximum (in CC#N): 607 nm
absorption maximum (in CCCCCC): 616 nm
absorption maximum (in CO): 610 nm
absorption maximum (in Cc1ccccc1): 623 nm
absorption maximum (in ClCCl): 616 nm

Structure (SMILES): CCCCCCOc1cc(/C=C/c2cc(OCCCCCC)c(/C=C/c3cc(OCCCCCC)c(C=C4C(=O)c5ccccc5C4=O)cc3OCCCCCC)cc2OCCCCCC)c(OCCCCCC)cc1C=C1C(=O)c2ccccc2C1=O
absorption maximum (in ClCCl): 550 nm

Structure (SMILES): CC(C)(C)c1ccc2c(c1)c1cc(C(C)(C)C)ccc1n2-c1ccc(-c2nc3cc(C#N)c(C#N)cc3nc2-c2ccc(-n3c4ccc(C(C)(C)C)cc4c4cc(C(C)(C)C)ccc43)cc2)cc1
absorption maximum (in Cc1ccccc1): 443 nm

Structure (SMILES): CC(C)(C)NC(=O)c1cccc2ccc3c4ccccc4c4ccccc4c3c12
absorption maximum (in ClCCl): 332 nm

Structure (SMILES): Cc1ccc(-c2c3nc(c(-c4ccc(C)cc4)c4ccc([nH]4)c(-c4ccc(C)cc4)c4nc(c(-c5ccc(C)cc5)c5ccc2[nH]5)C=C4N2CCOCC2)C=C3)cc1
absorption maximum (in CS(C)=O): 653 nm

Structure (SMILES): c1ccc(-c2nc(-c3ccccc3)nc(-c3ccc(-n4c5ccccc5c5ccc6c(c7ccccc7n6-c6ccccc6)c54)cc3)n2)cc1
absorption maximum (in Cc1ccccc1): 360 nm

Structure (SMILES): F[B-]1(F)OC(c2ccc(C(F)(F)F)cc2)=Cc2c3ccccc3c3ccccc3[n+]21
absorption maximum (in ClC(Cl)Cl): 430 nm

Structure (SMILES): C(#Cc1ccccc1C#Cc1ccccc1)c1ccccc1
absorption maximum (in CC#N): 310 nm

Structure (SMILES): [C-]#[N+]c1ccc(-c2ccc(N)cc2)cc1
absorption maximum (in C1CCCCC1): 302 nm
absorption maximum (in C1CCOC1): 319 nm
absorption maximum (in C1COCCO1): 315 nm
absorption maximum (in CC#N): 310 nm
absorption maximum (in CC(C)=O): 329 nm
absorption maximum (in CCCCCC): 301 nm
absorption maximum (in CCOC(C)=O): 315 nm
absorption maximum (in CN(C)C=O): 314 nm
absorption maximum (in CO): 308 nm
absorption maximum (in CS(C)=O): 318 nm
absorption maximum (in Cc1ccccc1): 310 nm
absorption maximum (in ClC(Cl)Cl): 305 nm
absorption maximum (in ClCCl): 307 nm
absorption maximum (in O): 298 nm
absorption maximum (in c1ccncc1): 325 nm

Structure (SMILES): N#Cc1c(-n2c3ccccc3c3ccccc32)cc(N2c3ccccc3C(c3ccccc3)(c3ccccc3)c3ccccc32)cc1-n1c2ccccc2c2ccccc21
absorption maximum (in Cc1ccccc1): 368 nm

Structure (SMILES): CC(=O)Nc1ccc(S(=O)(=O)O)c(/N=N/c2c(O)c3ccccc3n(C)c2=O)c1
absorption maximum (in C1CCOC1): 435 nm
absorption maximum (in CC(C)=O): 425 nm
absorption maximum (in CCOC(C)=O): 434 nm
absorption maximum (in CO): 423 nm
absorption maximum (in CS(C)=O): 428 nm
absorption maximum (in Cc1ccccc1): 437 nm
absorption maximum (in ClCCl): 435 nm
absorption maximum (in O): 417 nm

Structure (SMILES): CCCCCCCCCCCCOc1ccc(C2=C3C(=O)N(CC(OCC)OCC)C(c4ccc(OCCCCCCCCCCCC)c(OCCCCCCCCCCCC)c4)=C3C(=O)N2CC(OCC)OCC)cc1OCCCCCCCCCCCC
absorption maximum (in ClC(Cl)Cl): 496 nm

Structure (SMILES): COc1ccc(-c2nc(-c3ccccc3O)c(-c3ccccc3O)n2-c2ccc(C)cc2)cc1
absorption maximum (in C1CCOC1): 305 nm
absorption maximum (in CS(C)=O): 308 nm
absorption maximum (in ClC(Cl)Cl): 304 nm
absorption maximum (in ClCCl): 304 nm
